# Experimental data reported in PMC9667936, “Functional mapping of the 14-3-3 hub protein as a guide to design 14-3-3 molecular glues” (Chemical Science, 2022).
# Read-outs that look alike come from different tables or passages of the source. Where a SMILES comes first, the peptide text is derived from it. [ ]: non-standard residue; d: D form. ξ: configuration not given here. Phe(4-NO2) = N[C@@H](Cc1ccc([N+](=O)[O-])cc1)C(=O)O; ξAla(4-thiazolyl) = NC(Cc1cscn1)C(=O)O; pS = N[C@@H](COP(=O)(O)O)C(=O)O; β3hS = N[C@@H](CO)CC(=O)O; Nva = CCC[C@H](N)C(=O)O; βAla = NCCC(=O)O
# Target: T1, 14-3-3γ (Homo sapiens, UniProt P61981)
# T1 construct: made in house; host or cells: E. coli NiCo21 (DE3)
# T1 sequence (P61981 1-247): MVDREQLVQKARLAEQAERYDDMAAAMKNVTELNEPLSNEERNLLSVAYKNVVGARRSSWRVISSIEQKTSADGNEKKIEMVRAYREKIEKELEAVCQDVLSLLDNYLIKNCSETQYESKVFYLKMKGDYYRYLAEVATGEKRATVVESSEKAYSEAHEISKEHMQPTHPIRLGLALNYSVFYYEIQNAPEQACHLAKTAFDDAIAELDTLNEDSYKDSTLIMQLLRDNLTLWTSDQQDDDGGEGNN
# Test: Isothermal titration calorimetry (ITC) of 14-3-3 binding to peptide
# Conditions: for ΔG / Kd / ΔH / -TΔS: 25 °C; for Kd: Table S6 (unit as in Table S5)
# Procedure: 14-3-3γ protein expression (FP/ITC experiments)
# A pPROEX HTb expression vector encoding the human 14-3-3 protein gamma (14-3-3γ) with an N-terminal his6-tag was transformed by heat shock into NiCo21 (DE3) competent cells. Single colonies were cultured in 50 mL LB medium (100 µg/mL ampicillin). After overnight incubation at 37 °C, cultures were transferred to 2 L TB media (100 µg/mL ampicillin, 1 mM MgCl2) and incubated at 37 °C until an OD600 nm of 0.8-1.2 was reached. Protein expression was then induced with 0.4 mM isopropyl-β-d-thiogalactoside (IPTG), and cultures were incubated overnight at 18 °C. Cells were harvested by centrifugation (8600 rpm, 20 minutes, 4 °C) and resuspended in lysis buffer (50 mM Hepes, pH 8.0, 300 mM NaCl, 12.5 mM imidazole, 5 mM MgCl2, 2 mM βME) containing cOmplete™ EDTA-free Protease Inhibitor Cocktail tablets (1 tablet/100 ml lysate) and benzonase (1 µl/100 ml). After lysis using a C3 Emulsiflex-C3 homogenizer (Avestin), the cell lysate was cleared by centrifugation (20000 rpm, 30 minutes, 4 °C) and purified using Ni2+-affinity chromatography (Ni-NTA superflow cartridges, Qiagen).
# Typically two 5 mL columns (flow 5 mL/min) were used for a 2 L culture in which the lysate was loaded on the column washed with 10 CV wash buffer (50 mM Hepes, pH 8.0, 300 mM NaCl, 25 mM imidazole, 2 mM βME) and eluted in several fractions (2-4 CV) of elution buffer (50 mM Hepes, pH 8.0, 300 mM NaCl, 250 mM imidazole, 2 mM βME). Fractions containing the 14-3-3 protein were combined and dialyzed into 25 mM HEPES pH 8.0, 100 mM NaCl, 10 mM MgCl2, 500 µM TCEP. […]
# The peptides 1 and 2a-d were synthesized on 50 µmol scale on a Rink amide MBHA resin (Novabiochem, 0.52 mmol/g loading) using an automated Intavis MultiPep RSi peptide synthesizer.
# Deprotection was performed twice per cycle with 20% v/v piperidine in DMF for 8 minutes. Fmoc-protected amino acids were mixed in 5 equivalents of HBTU and 9 equivalents of DIPEA in DMF, and coupled to the resin. With the exception of phosphoserine, which was coupled once for 60 minutes, all amino acids were coupled to the resin twice for 30 minutes. Capping of unreacted amino acids was performed with a mixture of acetic anhydride/pyridine/DMF (1:1:3) for 5 minutes. βAla was incorporated as a spacer between the sequence and Lys(Alloc), to which a FITC fluorophore will be coupled for fluorescence anisotropy studies.
# The peptides 1 and 2e-i were synthesized manually on a 50 µmol scale using Rink amide MBHA resin (Novabiochem, 0.52 mmol/g loading) via Fmoc based solid phase peptide synthesis. […]
# (lex: 485 ± 20 nm; lem: 535 ± 25 nm; mirror: Dichroic 510; flashes: 20; integration time: 50 ms; settle time:
# 0 ms; gain: optimal; and Z-position: calculated from well). […]
# Data was obtained and averaged based on two
# To determine the cooperativity parameters from the 2D-titration of 14-3-3/ChREBP/2d (as described above) we have used the general framework for straightforward model construction of multi-component thermodynamic equilibrium systems as described by Geertjens et al. (2021).10 This general platform generates a model to describe multi-component equilibrium systems when given a system description.
# In our case we gave the following system description: […]
# α (with 95% confidence interval) and the error-landscape of the determine parameters.
# Fluorescence anisotropy (FA) – Selectivity study: Peptides representing 14-3-3 binding partners (including ChREBP) were titrated in a 2-fold dilution series (starting at 100 µM) to 20 nM of fluorescein-labeled peptide 2d in presence and absence of, respectively, 2 µM 14-3-3γ in FA buffer (10 mM HEPES pH 7.4, 150 mM NaCl, 0.1% (v/v) Tween20, 0.1% (w/v) BSA). Dilution series were made in a polystyrene (non-binding) low-volume Corning Black Round Bottom 384-well plates (Corning 4514 or 4511).
# Measurements were performed directly after plate preparation, using a Tecan Infinite F500 plate reader at room temperature (lex: 485 ± 20 nm; lem: 535 ± 25 nm; mirror: Dichroic 510; flashes: 20; integration […]
# [1] = Table S5, ITC Kd / Kd of peptide 1, first unlabelled line (replicate 1)
# [2] = Table S5, ITC Kd / Kd of peptide 1, second unlabelled line (replicate 2)
# [3] = Table S5, ITC Kd of peptide divided by Kd of peptide 1, mean of n = 2
# [4] = Table S5, ΔG minus ΔG of peptide 1, ITC, first unlabelled line (replicate 1)
# [5] = Table S5, ΔG minus ΔG of peptide 1, ITC, second unlabelled line (replicate 2)
# [6] = Table S5, ΔG of peptide minus ΔG of peptide 1, ITC, mean of n = 2
# [7] = ITC, average of two runs, read-out: Kd
# [8] = Table S6 (unit given in Fig. 4 legend), ITC, average of two runs
# [9] = Table S6, ITC, average of two runs
SMILES,Fold change to 1 [1],Fold change to 1 [2],"ΔG (Table S5, ITC, mean of n = 2)","ΔG (Table S5, ITC, replicate 1)","ΔG (Table S5, ITC, replicate 2)",ΔΔG to 1 [4],ΔΔG to 1 [5],ΔΔG to 1 [6],Kd [7],"Kd (ITC, run 1)","Kd (ITC, run 2)",ΔH [8],-TΔS [9],ΔG [9],"-TΔS (Table S6, ITC, run 1)","ΔG (Table S6, ITC, run 1)","ΔH (Table S6, ITC, run 1)","-TΔS (Table S6, ITC, run 2)","ΔG (Table S6, ITC, run 2)","ΔH (Table S6, ITC, run 2)",also measured
CCC[C@H](NC(=O)[C@H](N)CCCCN)C(=O)N[C@@H](Cc1ccc([N+](=O)[O-])cc1)C(=O)N[C@@H](C)C(=O)N[C@@H](COP(=O)(O)O)C(=O)N[C@@H](Cc1ccc([N+](=O)[O-])cc1)C(=O)N[C@@H](CO)CC(=O)NCCC(=O)N[C@@H](Cc1ccc([N+](=O)[O-])cc1)C(=O)N[C@@H](CCCCN)C(N)=O [3a] (H-[dK][Nva][Phe(4-NO2)]A[pS][Phe(4-NO2)][β3hS][βAla][Phe(4-NO2)]K-NH2; N-terminus and C-terminus assumed),2.0,1.5,-9.7 kcal/mol,-9.6 kcal/mol,-9.8 kcal/mol,0.4 kcal/mol,0.3 kcal/mol,0.3 kcal/mol,79.1 nM,"8,86E-08 M","6,97E-08 M","-7,40 kcal mol^-1","-2,29 kcal mol^-1","-9,69 kcal mol^-1","-1,624 kcal mol^-1","-9,622 kcal mol^-1","-7,998 kcal mol^-1","-2,955 kcal mol^-1","-9,764 kcal mol^-1","-6,809 kcal mol^-1",Fold change to 1 [3]: 1.8
CCC[C@H](NC(=O)[C@H](N)CCCCN)C(=O)N[C@@H](Cc1ccc([N+](=O)[O-])cc1)C(=O)NC(Cc1cscn1)C(=O)N[C@@H](COP(=O)(O)O)C(=O)N[C@@H](Cc1ccc(O)cc1)C(=O)N[C@@H](CO)CC(=O)NCCC(=O)N[C@@H](Cc1ccc([N+](=O)[O-])cc1)C(=O)N[C@@H](CCCCN)C(N)=O (stereo partly drawn) [4a] (H-[dK][Nva][Phe(4-NO2)][ξAla(4-thiazolyl)][pS]Y[β3hS][βAla][Phe(4-NO2)]K-NH2; N-terminus and C-terminus assumed),2.8,1.3,-9.6 kcal/mol,-9.4 kcal/mol,-9.8 kcal/mol,0.6 kcal/mol,0.2 kcal/mol,0.4 kcal/mol,93.6 nM,"1,26E-07 M","6,09E-08 M","-6,64 kcal mol^-1","-2,99 kcal mol^-1","-9,63 kcal mol^-1","-3,582 kcal mol^-1","-9,411 kcal mol^-1","-5,83 kcal mol^-1","-2,393 kcal mol^-1","-9,844 kcal mol^-1","-7,45 kcal mol^-1",Fold change to 1 [3]: 2.1
CCC[C@H](NC(=O)[C@H](N)CCCCN)C(=O)N[C@@H](Cc1ccc([N+](=O)[O-])cc1)C(=O)NC(Cc1cscn1)C(=O)N[C@@H](COP(=O)(O)O)C(=O)N[C@@H](Cc1ccccc1)C(=O)N[C@@H](CO)CC(=O)NCCC(=O)N[C@@H](Cc1ccc([N+](=O)[O-])cc1)C(=O)N[C@@H](CCCCN)C(N)=O (stereo partly drawn) [4b] (H-[dK][Nva][Phe(4-NO2)][ξAla(4-thiazolyl)][pS]F[β3hS][βAla][Phe(4-NO2)]K-NH2; N-terminus and C-terminus assumed),0.6,0.8,-10.2 kcal/mol,-10.3 kcal/mol,-10.1 kcal/mol,-0.3 kcal/mol,-0.1 kcal/mol,-0.2 kcal/mol,31.9 nM,"2,62E-08 M","3,76E-08 M","-7,40 kcal mol^-1","-2,87 kcal mol^-1","-10,24 kcal mol^-1","-2,391 kcal mol^-1","-10,34 kcal mol^-1","-8,024 kcal mol^-1","-3,345 kcal mol^-1","-10,13 kcal mol^-1","-6,783 kcal mol^-1",Fold change to 1 [3]: 0.7
CCC[C@H](NC(=O)[C@H](N)CCCCN)C(=O)N[C@@H](Cc1ccc([N+](=O)[O-])cc1)C(=O)NC(Cc1cscn1)C(=O)N[C@@H](COP(=O)(O)O)C(=O)N[C@@H](C)C(=O)N[C@@H](CO)CC(=O)NCCC(=O)N[C@@H](Cc1ccc([N+](=O)[O-])cc1)C(=O)N[C@@H](CCCCN)C(N)=O (stereo partly drawn) [4c] (H-[dK][Nva][Phe(4-NO2)][ξAla(4-thiazolyl)][pS]A[β3hS][βAla][Phe(4-NO2)]K-NH2; N-terminus and C-terminus assumed),15.0,18.9,-8.3 kcal/mol,-8.4 kcal/mol,-8.3 kcal/mol,1.6 kcal/mol,1.7 kcal/mol,1.7 kcal/mol,764 nM,"6,72E-07 M","8,56E-07 M","-4,81 kcal mol^-1","-3,54 kcal mol^-1","-8,35 kcal mol^-1","-3,445 kcal mol^-1","-8,421 kcal mol^-1","-4,976 kcal mol^-1","-3,629 kcal mol^-1","-8,278 kcal mol^-1","-4,649 kcal mol^-1","ΔΔG of point mutation (ITC) (ITC, relative to 1, mean ± SD, SD): 1.7 ± 0.1 kcal/mol"
